For 15 compounds, IC50 results are on record in patent US20210395235A1, “COMPOUND AS TGF-beta R1 INHIBITOR AND APPLICATION THEREOF” (NANJING SANHOME PHARMACEUTICAL CO., LTD., priority 2018, published 2021).

In one assay the target is T1, ALK5 (Homo sapiens, UniProt P36897).
T1 construct: purchased Carna 09-141
T1 sequence (P36897 162-503 limits assumed): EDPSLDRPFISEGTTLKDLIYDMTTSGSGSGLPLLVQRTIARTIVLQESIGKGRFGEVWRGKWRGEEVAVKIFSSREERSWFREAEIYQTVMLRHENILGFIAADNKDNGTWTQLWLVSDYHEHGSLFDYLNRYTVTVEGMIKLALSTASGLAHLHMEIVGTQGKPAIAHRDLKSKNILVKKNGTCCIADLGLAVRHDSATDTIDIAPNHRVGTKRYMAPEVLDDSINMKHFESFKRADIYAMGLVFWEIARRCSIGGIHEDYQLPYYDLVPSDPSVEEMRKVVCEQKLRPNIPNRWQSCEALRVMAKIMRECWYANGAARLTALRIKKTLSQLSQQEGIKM
Put plainly: In vitro activity against ALK5 kinase (ADP-Glo Kinase Assay). In kind it is biochemical. The note with it: 28° C. 120 minutes. Here is the method:
For the compounds of the present disclosure prepared in the above examples, each compound was prepared into 10 mM with DMSO, and then diluted to 3.333 μM, 1.111 μM, 370 nM, 123 nM, 41 nM, 14 nM, 4.6 nM, 1.5 nM and 0.5 nM successively.
Reagents: ALK5, Cat. No. 09-141, purchased from Carna; p38α, Cat. No. 04-152, purchased from the Carna; TGFβR1 peptides, Cat. No. T36-58, purchased from SignalChem; dimethyl sulfoxide (DMSO), purchased from Sigma, US; EDTA, purchased from Sigma, US; and ADP-Glo Kinase Assay, Cat. No. v9102/3, 1×Kinase buffer (40 mM Tris, pH7.5, 0.10% BSA, 20 mM MgCl2, 1 mM DTT), purchased from Promega, and prepared immediately before use.
2.2.1.1 Preparation of 50-fold compounds: The compounds were prepared into 500 μM, 50-fold concentration as the final concentration 10 μM for detecting the compounds, which was performed as following: into a second well of a 96-well plate, 95 μl of 100% DMSO was added, and then 5 μl of the 10 mM compound solution was added, to prepare a […] compound solution; into other wells, 60 μl of 100% DMSO was added; from the second well, 30 μl of the compound was drawn out and added into a third well; such 3-fold serial dilution was continued successively until 10 dilutions of concentration were made.
The kinase was added to a 1× kinase buffer, to form a 2× enzyme solution. 2.5 μl of the 2× enzyme solution was added to a 384-well reaction plate which already contained 100 nl of 100% DMSO-dissolved compound, to incubate at room temperature for 10 minutes.
FAM labeled peptides and ATP were added to the 1× kinase buffer, to form a 2× substrate solution. 2.5 μl of the 2× substrate solution was added to the 384-well reaction plate.
The 384-well plate was incubated at 28° C. for 120 minutes.
2.5.1 An ADP-Glo reagent was equilibrated to room temperature.
2.5.2 5 μl of the reaction solution was transferred into a reaction well at another new 384-well plate.
2.5.3 5 μl of the ADP-Glo reagent was transferred into the reaction well at the 384-well plate to stop the reaction.
2.5.4 An incubation was performed at 28° C. for 120 minutes.
2.5.5 10 μl of a kinase detection reagent was transferred into each reaction well, shaken for 1 minute, and was allowed to stand for 30 minutes at room temperature.
The luminescence value of the sample was read from Envision.
2.7.1 Luminescence reading data were copied from the Envision program.
2.7.2 The values of the luminescence reading were converted into the percent inhibition by the following formula.
Percent inhibition=(max−sample RLU)/(max−min)×100, where “min” stands for the fluorescence reading of the control sample with no enzyme added to the reaction; and “max” stands for the fluorescence reading of the sample with DMSO added as a control.
2.7.3 The date were imported into MS Excel and subjected to curve fitting using XLFit excel add-in version 5.4.0.8 and a fitting formula: Y=Bottom+(Top−Bottom)/(1+(IC50/X)^HillSlope).

Assay [1] deals with TGFβ-ALK5-SMAD2/3 signaling pathway in Luc-Smad2/3-NIH3T3 cells. Put plainly: In vitro cell luciferase assay in Luc-Smad2/3-NIH3T3 cells stimulated with TGFβ1. The note with it: Mus musculus; TGFβ1 4 ng/mL, 2% FBS medium, luciferase chemiluminescence. In kind it is cell-based. Here is the method: Test compounds: For the compounds of the present disclosure prepared in the above examples, each compound was prepared into 4 mM using DMSO. Then, a 4-fold serial dilution was made to obtain 20000.00 nM, 5000.00 nM, 1250.00 nM, 312.5 nM, 78.125 nM, 19.53 nM, 4.88 nM and 1.22 nM successively.
Luc-Smad2/3-NIH3T3 mouse fibroblasts (engineered to overexpress SMAD2,3-responsive promoter) were provided by a laboratory of China Pharmaceutical University.
Reagents: DMEM, purchased from Invitrogen, US; FBS, purchased from Invitrogen, US; DMSO, purchased from Sigma, US; Glo Lysis Buffer, purchased from Progema, US; Bright-Glo Luciferase assay system, purchased from Promega, US; and TGFβ, purchased from PeproTech, US.
Instruments: MD SpectraMaX M3 multifunctional enzyme reader, purchased from Molecular Devices, US.
Cell recovery: The cells were dissolved by placing in a […] water bath, then transferred to a 15 mL of pre-warmed culture medium, and centrifuged at 1000 rpm for 5 minutes. After the culture medium was discarded, the cells were resuspend in 15 mL of fresh culture medium, transferred to a 10 cm dish, and placed in an incubator at 37° C. with 5% CO2 for culture. After 24 hours, the culture medium for the cells was changed with a fresh culture medium.
Cell passage: The recovered cells were transferred to a 50 mL sterile centrifuge tube and centrifuged at 1000 rpm for 5 minutes. The culture medium was discarded. The evenly dispersed cells was counted, and adjusted to an appropriate cell concentration of 15 mL of fresh culture medium, added to a 10 cm dish, and placed in an incubator at 37° C. with 5% CO2 for culture.
Luc-Smad2/3-NIH3T3 cells were cultured normally in a 10 cm culture dish until the confluence reached 80%-90%. After digestion, they were collected in a 15 mL centrifuge tube, centrifuged at 1000×g for 5 minutes to remove the supernatant, and resuspended with 1 mL of medium, then diluted 10 times and counted. The cells was diluted according to the results from the count, and transferred into a 96-well plate at 4×10^3/cells per well (100 μl of resuspended cells was added in each well).
1-2 mg of the drug was weighed (weighed in advance), and prepared into a 4 mM stock solution using DMSO. After 24 hours, the culture medium was removed. The drug was diluted with 2% FBS culture medium. 100 μl of the 1× drug solution was added to make the final concentration of the drug to be 20000.00 nM, 5000.00 nM, 1250.00 nM, 312.5 nM, 78.125 nM, 19.53 nM, 4.88 nM, and 1.22 nM. TGFβ1 was present in each well at a final concentration of 4 ng/mL, and diluted with 2% FBS culture medium together with the compounds.
The Glo Lysis Buffer and the Bright-glo luciferase assay system as well as the cells were equilibrated to room temperature. After the cell supernatant was removed, the cells were dissolved evenly by adding 100 μl of the Glo Lysis Buffer to each well with shaking slowly, and lysed at room temperature for 5 minutes. After that, to each well, 100 μl of the Bright-glo luciferase assay system was added to incubate the cells for 5 minute at room temperature with shaking for 2 minutes. Then, 180 μl of the supernatant was transferred to a white bottom 96-well plate to detect chemiluminescence signal. The detection condition was 1 s.
2.3 Data processing: Graphpad Prism 5 software was used to perform nonlinear curve fitting and data analysis to obtain IC50 by fitting.

As to `COc1cc2nccc(Oc3cn(C4CC4)nc3C3CCOCC3)c2cc1Nc1cnn(C2COC2)c1` [Example 19, 4-((1-cyclopropyl-3-(tetrahydro-2H-pyran-4-yl)-1H-pyrazol-4-yl)oxa)-7-methoxy-N-(1-(oxetan-3-yl)-1H-pyrazol-4-yl)quinoline-6-amine], the results for the IC50 (against ALK5; in assay [1]) were 10 nM and 203 nM, respectively.
`Cn1cc(-c2ccc3c(Oc4cn(C5CC5)nc4C4CCOCC4)ccnc3c2)cn1` [Example 7, 4-((1-cyclopropyl-3-(tetrahydro-2H-pyran-4-yl)-1H-pyrazol-4-yl)oxy)-7-(1-methyl-1H-pyrazol-4-yl)quinoline]: the figures for the IC50 (on ALK5; in assay [1]) were 5.2 nM and 81 nM, respectively.
As for `c1cc(Oc2cn(C3CC3)nc2C2CCOCC2)c2ccc(N3CCOCC3)cc2n1` [Example 2, 4-(4-((1-cyclopropyl-3-(tetrahydro-2H-pyran-4-yl)-1H-pyrazol-4-yl)oxy)quinolin-7-yl)morpholine], the IC50 on ALK5 amounted to 98 nM; in assay [1], 150 nM.
Regarding `CS(=O)(=O)N1CC=C(c2ccc3c(Oc4cn(C5CC5)nc4C4CCOCC4)ccnc3c2)CC1` [Example 22, 4-((1-cyclopropyl-3-(tetrahydro-2H-pyran-4-yl)-1H-pyrazol-4-yl)oxy)-7-(1-(methylsulfonyl)-1,2,3,6-tetrahydropyridin-4-yl)quinoline], inhibition in assay [1] was half-maximal at 56 nM (IC50).
For the compound `CC(C)(O)c1cc(-c2ccc3c(Oc4cn(C5CC5)nc4C4CCOCC4)ccnc3c2)ccn1` [Example 16, 2-(4-(4-((1-cyclopropyl-3-(tetrahydro-2H-pyran-4-yl)-1H-pyrazol-4-yl)oxy)quinolin-7-yl)pyridin-2-yl)propan-2-ol], the results for the IC50 (at ALK5; in assay [1]) were 100 nM and 200 nM, respectively.
`FC(F)(F)c1nc2n(n1)CCN(c1ccc3c(Oc4cn(C5CC5)nc4C4CCOCC4)ccnc3c1)C2` [Example 23, 4-((1-cyclopropyl-3-(tetrahydro-2H-pyran-4-yl)-1H-pyrazol-4-yl)oxy)-7-(2-(trifluoromethyl)-5,6-dihydro-[1,2,4]triazolo[1,5-a]pyrazin-7(8H)-yl)quinoline] registered an IC50 in assay [1] of 200 nM.
Regarding `CC(C)(O)Cn1cc(-c2ccc3c(Oc4cn(C5CC5)nc4C4CCOCC4)ccnc3c2)cn1` [Example 11, 1-(4-(4-((1-cyclopropyl-3-(tetrahydro-2H-pyran-4-yl)-1H-pyrazol-4-yl)oxy)quinolin-7-yl)-1H-pyrazol-1-yl)-2-methylpropan-2-ol], in assay [1], the midpoint of inhibition, the IC50, lay at 96 nM.
`CS(=O)(=O)n1cc(-c2ccc3c(Oc4cn(C5CC5)nc4C4CCOCC4)ccnc3c2)cn1` [Example 9, 4-((1-cyclopropyl-3-(tetrahydro-2H-pyran-4-yl)-1H-pyrazol-4-yl)oxy)-7-(1-(methylsulfonyl)-1H-pyrazol-4-yl)quinoline] yielded an IC50 in assay [1] of 101 nM.
Consider `c1cc(Oc2cn(C3CC3)nc2C2CCOCC2)c2ccc(-c3cn[nH]c3)cc2n1` [Example 8, 4-((1-cyclopropyl-3-(tetrahydro-2H-pyran-4-yl)-1H-pyrazol-4-yl)oxy)-7-(1H-pyrazol-4-yl)quinoline], for which the IC50 in assay [1] is 92 nM.
`CS(=O)(=O)CCn1cc(-c2ccc3c(Oc4cn(C5CC5)nc4C4CCOCC4)ccnc3c2)cn1` [Example 10, 4-((1-cyclopropyl-3-(tetrahydro-2H-pyran-4-yl)-1H-pyrazol-4-yl)oxy)-7-(1-(2-(methylsulfonyl)ethyl)-1H-pyrazol-4-yl)quinoline] had an IC50 in assay [1] of 90 nM.
The compound `CS(=O)(=O)c1ccc(-c2ccc3c(Oc4cn(C5CC5)nc4C4CCOCC4)ccnc3c2)cn1` [Example 21, 4-((1-cyclopropyl-3-(tetrahydro-2H-pyran-4-yl)-1H-pyrazol-4-yl)oxy)-7-(6-(methylsulfonyl)pyridin-3-yl)quinoline] registered an IC50 in assay [1] of 49 nM.
For `Cn1cc(-c2ccc3c(Oc4cn(C5CC5)nc4-c4ccccc4)ccnc3c2)cn1` [Example 14, 4-((1-cyclopropyl-3-phenyl-1H-pyrazol-4-yl)oxy)-7-(1-methyl-1H-pyrazol-4-yl)quinoline], 46 nM corresponded to half-maximal inhibition in assay [1] (IC50).
Compound `NS(=O)(=O)c1ccc(-c2ccc3c(Oc4cn(C5CC5)nc4C4CCOCC4)ccnc3c2)cc1` [Example 20, 4-(4-((1-cyclopropyl-3-(tetrahydro-2H-pyran-4-yl)-1H-pyrazol-4-yl)oxy)quinolin-7-yl)benzenesulfonamide] returned an IC50 in assay [1] of 75 nM.
For `CC(C)n1cc(-c2ccc3c(Oc4cn(C5CC5)nc4C4CCOCC4)ccnc3c2)cn1` [Example 12, 4-((1-cyclopropyl-3-(tetrahydro-2H-pyran-4-yl)-1H-pyrazol-4-yl)oxy)-7-(1-isopropyl-1H-pyrazol-4-yl)quinoline], the IC50 in assay [1] came to 77 nM.
On to `FC(F)(F)Cn1cc(-c2ccc3c(Oc4cn(C5CC5)nc4C4CCOCC4)ccnc3c2)cn1` [Example 13, 4-((1-cyclopropyl-3-(tetrahydro-2H-pyran-4-yl)-1H-pyrazol-4-yl)oxy)-7-(1-(2,2,2-trifluoroethyl)-1H-pyrazol-4-yl)quinoline], for which the IC50 in assay [1] is 81 nM.

A word on the IC50: it is the concentration needed to halve the response being measured. A higher IC50 goes with weaker potency.
